Reference: PubChem BioAssay AID1918954 (Molecular Pharmacology Branch, DTP, NCI, 2023)
pIC50: −log10 of the molar value.

Tested on: MDA-MB-468 complex spheroids with HUVEC/MSC, viability
Test: Anticancer human tumor MDA-MB-468 cell line growth inhibition;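 note: spheroids exposed to agents for seven days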;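 for viability, T/C: 100% = DMSO vehicle control viability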
Settings: for pIC50: curve of first compound; for viability, T/C: stronger effect = lower value
Outline: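 Multicellular complex spheroids of tumor cells with human endothelial cells (HUVEC) and mesenchymal stem cells; the LSD1 inhibitor iadademstat was combined with standard-of-care or investigational agents. Top concentration at or near clinical Cmax, half-log dilutions; final DMSO ≤0.25%.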

CC1(C)CCC(CN2CCN(c3ccc(C(=O)NS(=O)(=O)c4ccc(NCC5CCOCC5)c([N+](=O)[O-])c4)c(Oc4cnc5[nH]ccc5c4)c3)CC2)=C(c2ccc(Cl)cc2)C1 + NC1CCC(NC2CC2c2ccccc2)CC1 showed a pIC50 (second compound 0.1 µM) of 5.26, a pIC50 (second compound 0.316 µM) of 5.24 and a pIC50 (second compound 1 µM) of 5.42. It also gave a pIC50 (second compound 3.16 µM) of 5.35, a pIC50 (second compound 10 µM) of 5.37 and a viability, T/C (second compound 0.1 µM, first compound 0.0316 µM) of 92.8%. The viability, T/C (second compound 0.1 µM, first compound 0.1 µM) was 87%, the viability, T/C (second compound 0.1 µM, first compound 0.316 µM) was 103% and the viability, T/C (second compound 0.1 µM, first compound 1 µM) was 98.6%. The viability, T/C (second compound 0.1 µM, first compound 3.16 µM) was 70%, the viability, T/C (second compound 0.1 µM, first compound 10 µM) was 29.1% and the viability, T/C (second compound 0.316 µM, first compound 0.0316 µM) was 99.8%. For the same compound, the viability, T/C (second compound 0.316 µM, first compound 0.1 µM) was 119%, the viability, T/C (second compound 0.316 µM, first compound 0.316 µM) was 128% and the viability, T/C (second compound 0.316 µM, first compound 1 µM) was 87.6%. The viability, T/C (second compound 0.316 µM, first compound 3.16 µM) was 78%, the viability, T/C (second compound 0.316 µM, first compound 10 µM) was 26.4% and the viability, T/C (second compound 1 µM, first compound 0.0316 µM) was 73.9%. For the same compound, the viability, T/C (second compound 1 µM, first compound 0.1 µM) was 113%, the viability, T/C (second compound 1 µM, first compound 0.316 µM) was 94.8% and the viability, T/C (second compound 1 µM, first compound 1 µM) was 79.1%. It also gave a viability, T/C (second compound 1 µM, first compound 3.16 µM) of 54%, a viability, T/C (second compound 1 µM, first compound 10 µM) of 34.8% and a viability, T/C (second compound 3.16 µM, first compound 0.0316 µM) of 87.9%. It also gave a viability, T/C (second compound 3.16 µM, first compound 0.1 µM) of 95.5%, a viability, T/C (second compound 3.16 µM, first compound 0.316 µM) of 78.1% and a viability, T/C (second compound 3.16 µM, first compound 1 µM) of 76.6%. For the same compound, the viability, T/C (second compound 3.16 µM, first compound 3.16 µM) was 61.2%, the viability, T/C (second compound 3.16 µM, first compound 10 µM) was 27.2% and the viability, T/C (second compound 10 µM, first compound 0.0316 µM) was 71.2%. It also gave a viability, T/C (second compound 10 µM, first compound 0.1 µM) of 68.7%, a viability, T/C (second compound 10 µM, first compound 0.316 µM) of 67.1% and a viability, T/C (second compound 10 µM, first compound 1 µM) of 65.3%. For the same compound, the viability, T/C (second compound 10 µM, first compound 3.16 µM) was 58.1% and the viability, T/C (second compound 10 µM, first compound 10 µM) was 27.8%.
